Measurements as given in US8609833B2, “Purine derivatives as adenosine A1 receptor agonists and methods of use thereof” (Inotek Pharmaceuticals Corporation, priority 2004, dated 2013).

Assays:
[1] = target: human recombinant A2A adenosine receptor (Homo sapiens (Human), UniProt P29274); experiment: Adenosine A2A receptor binding, displacement of [3H]NECA; conditions: displacement of specific [3H]NECA binding, CHO cells; geometric mean
Protocol: (§1) Membranes for radioligand binding experiments were prepared from fresh or frozen cells as described in Klotz et al., Naunyn-Schmiedeberg's Arch. […] The cell suspension was then homogenized in ice-cold hypotonic buffer (5 mM Tris/HCl, 2 mM EDTA, pH 7.4) and the homogenate was spun for 10 minutes (4° C.) at 1,000 g.
(§2) Nonspecific binding was determined in the presence of 100 μM R-PIA and 1 mM theophylline, respectively. For details see Klotz et al., Naunyn-Schmiedeberg's Arch.

[2] = target: human recombinant A3 adenosine receptor (Homo sapiens (Human), UniProt P0DMS8); experiment: Adenosine A3 receptor binding, displacement of [3H]NECA; conditions: displacement of specific [3H]NECA binding, HEK cells; geometric mean
human recombinant A3 adenosine receptor, sequence (P0DMS8 whole entry): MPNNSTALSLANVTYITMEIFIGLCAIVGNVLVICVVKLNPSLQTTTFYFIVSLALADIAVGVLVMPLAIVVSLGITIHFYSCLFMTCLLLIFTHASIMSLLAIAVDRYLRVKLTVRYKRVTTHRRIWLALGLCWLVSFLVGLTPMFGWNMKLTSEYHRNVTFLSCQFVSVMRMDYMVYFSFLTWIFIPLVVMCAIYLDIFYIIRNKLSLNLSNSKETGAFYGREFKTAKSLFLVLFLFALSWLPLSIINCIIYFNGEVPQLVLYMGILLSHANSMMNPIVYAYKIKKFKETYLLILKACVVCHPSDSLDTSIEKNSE
Protocol: as §1, §2

male mice [3] = experiment: Acute pain model, tail flick assay; assay type: in vivo, mouse; conditions: 3 mg/kg i.p.
Protocol: The analgesic effects in mice was measured using an IITC model 33 tail-flick analgesia meter (IITC Inc., Woodland Hills, Calif.) at 0 minutes (baseline control), 5 minutes, 15 minutes, 30 minutes and 60 minutes (in some cases also 90 and 120 minutes) post-treatment. compound or vehicle treatment. Average recoding value of two readings was used for each time point. A baseline for every mouse between 2-4 seconds of latency and a 10-second cut-off time was set for the maximum possible effect of analgesia (% MPE). % MPE was calculated using the following formula: % MPE=[(post-drug value−baseline)/(cut-off time−baseline)]×100.

male mice [4] = experiment: Formalin pain model; assay type: in vivo, mouse; conditions: 1.0 mg/kg i.p.
Protocol: Male mice (each having a body weight of 20-30 g) were subcutaneously administered 20 μl of a 1% formalin solution in formaldehyde (prepared by diluting a commercial 4% [w/v] stock formalin solution) into the dorsal region of their left hind paw. […] Both groups of animals were monitored for a reaction for 30 minutes post-treatment to determine how much time each animal spends licking the treated paw. The licking time in control group (vehicle pretreated animals) was then compared to the licking time in the treatment group in order to calculate the analgesic effect. The 30 minute reaction period was divided into two phases: an early phase which lasts from 0-5 minutes post-treatment, and a late phase which lasts from 10-30 minutes post-treatment.

male BALB/c mice [5] = experiment: Lipopolysaccharide-induced cytokine production (septic shock model); assay type: in vivo, mouse; conditions: 0.03 mg/kg orally 30 min before LPS 1 mg/kg i.p.; measured 90 min after LPS
Protocol: (§3) Male BALB/c mice (6-8 weeks of age) were used in studies investigating lipopolysaccharide-induced cytokine production and survival. […] Serum was diluted 1:5 prior to being assayed for cytokines using species-specific ELISA kits (R & D Systems) for the chemokine MIP-1α and the cytokine TNF-α levels, which were expressed as pg/mL. […] The survival of the mice was followed over 72 h and expressed as a percentage of surviving mice at each time point. […] N=12-14 per group.

male CD rats = experiment: Sciatic nerve ligation allodynia, Von Frey Hair test; assay type: in vivo, rat
Protocol: The rats were then anesthetized via intraperitoneal administration of sodium pentobarbital (50 mg/kg). A skin incision was made at the upper ⅓ and ⅔ left thigh area of each rat and the left sciatic nerve was exposed and freed from the surrounding connective tissue. An 8-0 nylon suture was then used to tightly ligate the left sciatic nerve of each rat so that the dorsal ⅓ to ½ of the nerve thickness was trapped in the ligature. The incision was closed using 4-0 sterile suture.

BALB/C mice = experiment: Allodynia in streptozotocin model of diabetic neuropathy; assay type: in vivo, mouse; conditions: 1 mg/kg; 15, 30, 60 min after administration
Protocol: BALB/C mice (6-8 weeks of age) were intraperitoneally administered streptozotocin (40 mg/kg, once per day for 5 consecutive days) to induce diabetes (blood glucose levels were greater than […]).

[6] = test system: isolated perfused rat hearts; experiment: Ischemia-induced arrhythmias in isolated perfused rat hearts (LAD ligation)
Protocol: Male Sprague-Dawley rats (having a body weight of 250 to 300 g) were heparinized using sodium heparin (1,000 U/kg i.p.), followed 10 minutes later by introduction of anesthesia via intraperitoneal administration of sodium pentobarbital (40 mg/kg). Once the animal was anesthetized, the thorax was opened, and the heart was rapidly removed and perfused through the ascending aorta using Krebs-Ringer buffer consisting of NaCl (118 mmol/liter), KCl (4.75 mmol/liter), KH2PO4 (1.18 mmol/liter), MgSO4 (1.18 mmol/liter), CaCl2 (2.5 mmol/liter), NaHCO3 (25 mmol/liter), and glucose (11 mmol/liter). A mixture of 95% O2 and 5% CO2 at 37° C. was bubbled through the perfusate. The heart was initially perfused at a constant pressure of 70 mm Hg. About 10 min after the constant pressure perfusion, perfusion was switched to constant flow perfusion achieved using a microtube pump. The perfusion pressure was maintained at the same level of constant pressure perfusion by adjusting flow rate. Once the flow rate was determined, it was maintained throughout the experiment. The hearts were stimulated by rectangular pulses at a rate of 5 Hz and 2-millisecond duration and twice the diastolic threshold, delivered from a stimulus isolation unit (ADInstruments Ltd, Australia). Rat hearts were perfused at constant pressure of 70 mmHg without pacing as described above. Bipolar epicardial electrocardiogram (ECG) was recorded by placing two electrodes on the surface of right appendage and apex. A stainless steel cannula was used as indifferent electrode. The ECG and heart rate were continuously monitored and data were recorded using a PowerLab data acquisition system (ADInstruments Ltd, Australia) in conjunction with a Macintosh computer, and analyzed using Chart.3 computer package. After a 20-minute equilibration period, regional ischemia was induced by ligation of the left anterior descending (LAD) coronary artery, and the ligature was released 30 minutes after occlusion. […] The incidences of ventricular tachycardia (VT) were almost same in control non-treated (12/12) and in treated hearts (20/22). […]

male BALB/c mice [7] = experiment: Lipopolysaccharide-induced mortality, survival study; assay type: in vivo, mouse; conditions: 0.03 mg/kg orally 30 min before LPS 55 mg/kg i.p.; followed over 72 h
Protocol: as §3

[8] = test system: isolated perfused rat hearts; experiment: Function recovery after global ischemia/reperfusion in isolated perfused rat hearts; conditions: 1 nM, infused 10 min before 30 min no-flow ischemia, 40 min reperfusion
Protocol: Male Sprague-Dawley rats (having a body weight of 250 to 300 g) were heparinized using sodium heparin (1,000 U/kg i.p.), followed 10 minutes later by introduction of anesthesia via intraperitoneal administration of sodium pentobarbital (40 mg/kg). Once the animal was anesthetized, the thorax was opened, and the heart was rapidly removed and perfused through the ascending aorta using Krebs-Ringer buffer consisting of NaCl (118 mmol/liter), KCl (4.75 mmol/liter), KH2PO4 (1.18 mmol/liter), MgSO4 (1.18 mmol/liter), CaCl2 (2.5 mmol/liter), NaHCO3 (25 mmol/liter), and glucose (11 mmol/liter). A mixture of 95% O2 and 5% CO2 at 37° C. was bubbled through the perfusate. The heart was initially perfused at a constant pressure of 70 mm Hg. About 10 min after the constant pressure perfusion, perfusion was switched to constant flow perfusion achieved using a microtube pump. The perfusion pressure was maintained at the same level of constant pressure perfusion by adjusting flow rate. Once the flow rate was determined, it was maintained throughout the experiment. The hearts were stimulated by rectangular pulses at a rate of 5 Hz and 2-millisecond duration and twice the diastolic threshold, delivered from a stimulus isolation unit (ADInstruments Ltd, Australia). Rat hearts were initially perfused at a constant pressure of 70 mm Hg using the procedure described above in section 6.12.1. […]

male Wistar rats = experiment: Mechanically induced pain threshold in carrageenan rat model; assay type: in vivo; conditions: intrathecal, 5.0 mg/kg (FIG. 8); 15-120 min
Protocol: Male Wistar rats (each weighing between 200-250 g, kept under pathogen-free conditions at 24-25° C. and provided with standard rat chow and water ad libitum) were anaesthetized via intraperitoneal administration of pentobarbital (50 mg/kg) and placed in a stereotaxic frame. The atlanto-occipital membrane was exposed and a PE-10 catheter (7.5 cm) was inserted through an incision into the subarachnoidal space. The external end of the catheter was then fixed to the skull, the wound was closed, and the rats were allowed to recover for 7 days post-surgery. Animals without neurological deficits were placed in a plexiglass observation chamber on a metal mesh surface and mechanical thresholds of the plantar surface of the paw were determined using a Dynamic Plantar Aesthesiometer (Ugo Basile, Italy) as follows: Following acclimation, the touch stimulator unit was placed under the animal's paw such that the filament was positioned under the target area of the paw. The filament was then lifted such that it contacted the pad of the animal's paw and continually exerted an increasing upward force on the paw until the animal withdrew the paw. The paw withdrawal threshold was measured 5 times in this manner in turns and the mean of the 5 values was calculated. […] Three hours after the carrageenan administration, the threshold values were measured again.

adult male Wistar rats = experiment: Effect on heart rate in anesthetized rats; assay type: in vivo, rat
From the text: Adult male Wistar rats (each weighing from about 350 g to about 400 g) were anesthetized as in Example 19, then prepared for monitoring of blood pressure and heart rate.

[9] = target: human recombinant A1 adenosine receptor (Homo sapiens (Human), UniProt P30542); experiment: Adenosine A1 receptor binding, displacement of [3H]CCPA; conditions: for Ki: displacement of specific [3H]CCPA binding, CHO cells, geometric mean; for selectivity for the adenosine A1 receptor: versus human A2A and A3 receptors, Table 1
human recombinant A1 adenosine receptor, sequence (P30542 whole entry): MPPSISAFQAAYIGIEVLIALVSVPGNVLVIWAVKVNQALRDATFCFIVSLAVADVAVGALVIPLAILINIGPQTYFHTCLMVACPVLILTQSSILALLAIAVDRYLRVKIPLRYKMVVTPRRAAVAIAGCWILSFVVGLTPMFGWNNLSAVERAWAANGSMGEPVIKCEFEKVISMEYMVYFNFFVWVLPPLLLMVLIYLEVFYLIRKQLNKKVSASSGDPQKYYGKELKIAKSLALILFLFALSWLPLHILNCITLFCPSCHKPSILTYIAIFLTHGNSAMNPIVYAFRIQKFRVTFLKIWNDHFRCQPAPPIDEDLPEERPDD
Protocol: as §1
The affinities of selected Purine Derivatives for the adenosine A1 receptor were determined by measuring the displacement of specific [^3H]
as §2

human recombinant A2A adenosine receptor, sequence (P29274 whole entry): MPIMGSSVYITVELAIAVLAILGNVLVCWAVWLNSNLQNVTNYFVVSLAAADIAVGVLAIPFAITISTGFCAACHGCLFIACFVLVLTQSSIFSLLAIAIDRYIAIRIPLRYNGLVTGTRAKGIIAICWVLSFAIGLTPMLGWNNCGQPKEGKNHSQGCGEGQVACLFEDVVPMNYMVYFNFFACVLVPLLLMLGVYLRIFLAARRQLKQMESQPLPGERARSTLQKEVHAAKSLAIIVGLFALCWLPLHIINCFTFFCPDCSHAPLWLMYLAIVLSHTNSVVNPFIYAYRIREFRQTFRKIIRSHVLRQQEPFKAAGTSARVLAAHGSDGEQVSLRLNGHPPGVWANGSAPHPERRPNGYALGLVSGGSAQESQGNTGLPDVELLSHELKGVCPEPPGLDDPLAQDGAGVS

Work on `O=[N+]([O-])OC[C@H]1O[C@@H](n2cnc3c(NC4CCCC4)nc(Cl)nc32)[C@H](O)[C@@H]1O` [Compound 16] yielded a Ki [1] of 4190 nM.

For `O=[N+]([O-])OC[C@H]1O[C@@H](n2cnc3c(NC4CCCC4)ncnc32)[C@H](O)[C@@H]1O` [Compound 17], the Ki [2] was 704 nM, the “analgesic effect, tail flick (% MPE)” value (male mice [3]) was “exerts a analgesic effect” and the Ki [1] was 4690 nM. The “analgesic effect, paw licking time, late phase (10-30 min)” value (male mice [4]) was “exhibits an analgesic effect during the late phase”, the “response in first phase of formalin test” value (male mice [4]; early phase 0-5 min) was “no response” and the “lipopolysaccharide-induced plasma MIP-1α production” value (male BALB/c mice [5]) was “reduces”. The “lipopolysaccharide-induced plasma TNF-α production” value (male BALB/c mice [5]) was “reduces”, the “analgesic effect on allodynia, alone” value (male CD rats; 0.1 mg/kg alone) was “exerts an analgesic effect” and the “analgesic effect on allodynia, in combination with buprenorphine” value (male CD rats; 0.1 mg/kg co-administered with buprenorphine 0.3 mg/kg) was “exerts an analgesic effect”. For the same compound, the “analgesic effect on allodynia” value (BALB/C mice) was “marked and lasting analgesic effect”, the “total duration of both VT and VF” value ([6]; 30 and 100 pM) was “significantly shortened” and the “incidence of ventricular fibrillation (VF)” value ([6]; treated hearts (2/22), 10, 30 and 100 pM, non-treated 58% (7/12)) was 9%. For the same compound, the “incidence of ventricular tachycardia (VT)” value ([6]; treated hearts, 10, 30 and 100 pM, non-treated 12/12) was 20/22, the lipopolysaccharide-induced mortality (male BALB/c mice [7]) was “reduces” and the “+dp/dtmax (maximal rate of development of left ventricular pressure)” value [8] was “significantly improved”. The “paw withdrawal (pain) threshold” value (male Wistar rats) was “effective for raising the pain threshold”, the heart rate (adult male Wistar rats; 10 ng/kg/minute i.v. for 20 minutes, lowered from 440 beats per minute) was 370 beats per minute and the heart rate (adult male Wistar rats; 1000 ng/kg/minute i.v. for 20 minutes, reduced from 440 beats per minute) was 150 beats per minute.

With `Nc1ncnc2c1ncn2[C@@H]1O[C@H](CO[N+](=O)[O-])[C@@H](O)[C@H]1O` [Compound 18] the Ki [2] was 216 nM, the Ki [1] was 951 nM and the Ki [9] was 5.79 nM. The “selectivity for the adenosine A1 receptor” value (shortened to “selectivity”) [9] was “selective for the adenosine A1 receptor”.

`Nc1nc(Cl)nc2c1ncn2[C@@H]1O[C@H](CO[N+](=O)[O-])[C@@H](O)[C@H]1O` [Compound 19] was tested, and the Ki [2] was 900 nM, the Ki [1] was 10000 nM and the Ki [9] was 7 nM. The “selectivity” value [9] was “selective for the adenosine A1 receptor”.

For `O=[N+]([O-])OC[C@H]1O[C@@H](n2cnc3c(NC4CCOC4)ncnc32)[C@H](O)[C@@H]1O` (stereo partly drawn) [Compound 25], the Ki [2] was 2020 nM, the Ki [1] was greater than 100000 nM and the “selectivity” value [9] was “selective for the adenosine A1 receptor”.
